Reference: US11466032B2, “Cytotoxic agents” (FEMTOGENIX LIMITED, priority 2017, dated 2022)
pIC50: −log10 of the molar value.

Columns and labels:
LIM 1215 = assay: MTT cytotoxicity assay, 72 hour incubation; assay type: cell-based
Description: (§1) The cytotoxicity of compounds 26, 34, 50,58 and 68 were evaluated in a variety of cell lines using the standard MTT assay for a 72 hour incubation period (Table 1).
(§2) Tumor cell lines were maintained in RPMI1640 medium supplemented with 10% heat-inactivated fetal bovine serum, 2 mM L-glutamine and 1 mM sodium pyruvate. 1800 cells per well were seeded in a volume of 180 μl in a 96-well flat bottom polystyrene plate. The cells were allowed to adhere overnight at 37° C. in a CO2 incubator. Ligands were initially formulated in DMSO, and stocks stored at −80° C. They were then further formulated at lox concentration in RPMI1640 medium. 20 ul of diluted samples were added into each treatment well. On each plate, blank wells with no cells, and untreated wells containing cells, were included. Plates were then cultured at 37° C. in a CO2 incubator for 72 hrs. Cytotoxicity was evaluated using a tetrazolium salt-based assay, the MT assay. After 72 hours, the supernatant was removed from each well and 200 μl of a sterile filtered 500 μg/ml MT solution in water added to each well. The plates were then incubated at 37° C. in a CO2 incubator for 4 hrs. The supernatant was then removed and the formazan crystals formed solubilized by adding 150 μl of DMSO to each well. The plate was then read on a plate reader at 540 nm, and percentage cell survival calculated as follows: ((mean absorbance treated wells at concentration x—mean absorbance blank wells)÷(mean absorbance untreated wells at concentration x—mean absorbance blank wells))×100. Data were plotted as concentration in nM vs. % cell survival in Microsoft Excel, and IC50 values (concentration where cell survival is reduced by a half) were determined from the graph.

SW48 = assay: MTT cytotoxicity assay, 72 hour incubation; assay type: cell-based
Description: as §1, §2

SW 620 = assay: MTT cytotoxicity assay, 72 hour incubation; assay type: cell-based
Description: as §1, §2

[1] = tested on: linear 32P-end-labelled TyrT DNA; assay: DNA interstrand cross-linking assay (denaturing polyacrylamide gel); assay type: biochemical; settings: overnight incubation at 37° C.
Description: The ability of 26 and 34 to cross-link DNA was determined using an assay involving linear double-stranded HexA. TyrT and MS1 DNA fragments (FIG. 5).
Following denaturation conditions (treatment with formamide and heating at 65° C. for 5 min) the DNA strands were completely separated (see control C2, FIG. 6). The presence of an interstrand cross-link holds the denatured strands in close proximity, and cross-linked adducts therefore run as double-stranded DNA on polyacrylamide gel. Talirine and 34 were tested at >10 different concentrations, and the assay was repeated twice. […] C1 and C2 represent controls where C1 is DNA without formic acid, and C2 is DNA without formic acid, but heated thereby forming single strands. Cross-links are clearly detectable at concentrations as low as 10 nM. Using the same assay, the PBD dimer Talirine was also shown to cross-link DNA down to a concentration of 10 nM (FIG. 7).
The preparation of the DNA fragments (FIG. 5) has been previously described^[4]. Briefly, the sequence which had been cloned into the BamHI site of pUC18 was obtained by cutting with HindIII and EcoRI. Radiolabelled DNA fragments were prepared by filling in the 3′-end of the HindIII site with [α-^32P]dATP using Klenow DNA polymerase (exo-).
The radiolabelled DNA fragment was separated from the remainder of the plasmid DNA on a 6% non-denaturing polyacrylamide gel. […]

[2] = tested on: HexA and MS1 DNA fragments; assay: DNA footprinting; assay type: binding; settings: X is any base, Y is G or C, W is A or T; overnight incubation
Description: The sequence selectivity of 26 and 34 was investigated using a modification of the previously established DNA footprinting assay^25. Following an overnight incubation of the ligand-DNA complexes, the mixture was mixed with strand separation buffer containing 10 mM EDTA, 10 mM NaOH, 0.1% bromophenol blue, 80% formamide and incubated at 100° C. for 3 min. The mixture was then immediately cooled on ice and run on an 8% denaturing gel.
Footprinting reactions were performed as previously described^[5] using the DNA fragments HexA and HexB, which together contain all 64 symmetrical hexanucleotide sequences^[6], and MS1 that contains all possible […] tetranucleotide sequences^[7]. The DNA fragments were obtained by cutting the parent plasmids with HindIII and SacI (for HexA and MS1) or EcoRI and PstI (for HexB), and were labelled at the 3′-end of the HindIII or EcoRI sites with [α-^32P]dATP using reverse transcriptase or exo-Klenow fragment. After gel purification, the radiolabelled DNA was dissolved in 10 mM Tris-HCl pH 7.5 containing 0.1 mM EDTA, at a concentration of about 10 c.p.s per μL as determined on a hand held Geiger counter. 1.5 μL of radiolabelled DNA was mixed with 1.5 μL ligand that had been freshly diluted in 10 mM Tris-HCl pH 7.5, containing 10 mM NaCl. […]

SK-BR-3 = assay: MTT cytotoxicity assay, 72 hour incubation; assay type: cell-based; settings: Homo sapiens, 3 runs
Description: as §1, §2

MCF-7 = assay: MTT cytotoxicity assay, 72 hour incubation; assay type: cell-based; settings: Homo sapiens, MCF7, 3 runs
Description: as §1, §2

ZR 75-1 = assay: MTT cytotoxicity assay, 72 hour incubation; assay type: cell-based; settings: Homo sapiens, 3 runs
Description: as §1, §2

Row | Molecule | pIC50 (LIM 1215; LIM1215, 3 runs) | pIC50 (SW48; Homo sapiens, SW48, 3 runs) | pIC50 (SW 620; Homo sapiens, SW-620, 3 runs) | pIC50 (LIM 1215; 3 runs) | pIC50 (SW48; 3 runs) | pIC50 (SW 620; 3 runs) | lowest concentration at which DNA is cross-linked [1] [nM] | general code of the footprints (preferred binding sites) [2] | pIC50 (SK-BR-3) | pIC50 (MCF-7) | pIC50 (ZR 75-1)
1 | COc1cc2c(cc1OCc1cccc(COc3cc4c(cc3OC)C(=O)N3CC=C(c5cncnc5)C[C@H]3C=N4)n1)N=C[C@@H]1CC(c3cncnc3)=CCN1C2=O [Compound 50, (6aS,6a′S)-3,3′-((Pyridine-2,6-diylbis(methylene))bis(oxy))bis(2-methoxy-8-(pyrimidin-5-yl)-7,10-dihydrobenzo[e]pyrido[1,2-α][1,4]diazepin-12(6aH)-one)] | 11.43 | 11.51 | 8.87 | – | – | – | – | – | – | – | –
2 | Talirine [reference compound] | – | – | – | 9.36 | 11.52 | 10.77 | 10 | – | – | – | –
3 | COc1cc2c(cc1OCc1cccc(COc3cc4c(cc3OC)C(=O)N3CC=C(c5ccsc5)C[C@H]3C=N4)n1)N=C[C@@H]1CC(c3ccsc3)=CCN1C2=O [Compound 58, (6aS,6a′S)-3,3′-((Pyridine-2,6-diylbis(methylene))bis(oxy))bis(2-methoxy-8-(thiophen-3-yl)-7,10-dihydrobenzo[e]pyrido[1,2-α][1,4]diazepin-12(6aH)-one)] | 10.64 | 11.07 | 10.04 | – | – | – | – | – | – | – | –
4 | COc1cc2c(cc1OCc1cccc(COc3cc4c(cc3OC)C(=O)N3CC=C(c5cccs5)C[C@H]3C=N4)n1)N=C[C@@H]1CC(c3cccs3)=CCN1C2=O [Compound 68, (6aS,6a′S)-3,3′-((Pyridine-2,6-diylbis(methylene))bis(oxy))bis(2-methoxy-8-(thiophen-2-yl)-7,10-dihydrobenzo[e]pyrido[1,2-α][1,4]diazepin-12(6aH)-one)] | 10.89 | 10.92 | 10.52 | – | – | – | – | – | – | – | –
5 | COc1ccc(C2=CCN3C(=O)c4cc(OC)c(OCc5cccc(COc6cc7c(cc6OC)C(=O)N6CC=C(c8ccc(OC)cc8)C[C@H]6C=N7)n5)cc4N=C[C@@H]3C2)cc1 [Compound 26, (6aS,6a′S)-3,3′-((Pyridine-2,6-diylbis(methylene))bis(oxy))bis(2-methoxy-8-(4-methoxyphenyl)-7,10-dihydrobenzo[e]pyrido[1,2-α][1,4]diazepin-12(6aH)-one)] | 11.22 | 11.22 | 11.30 | – | – | – | – | XYWWYWYX | 11.22 | 11.22 | 11.30
